Data: patent US7887599B2, “Methods of use of biodegradable injectable implants” (priority 2001, dated 2011)

Columns and labels:
[1] = cited from earlier work
[2] = system: guinea pigs; assay: Preliminary test of glycolic acid concentration for intradermal injections in guinea pigs
From the text: (§1) In a preliminary test, 39 guinea pigs were used to define product concentration for intradermal injections. All were adult animals and sex was not considered. They were divided in 4 different cages, each containing 9, 10, 10 and 10 animals. […] Evaluations were taken after the 3rd and 7th day.

[3] = system: human patients; settings: in comparison to the retinoids (Personelli); cited from earlier work
[4] = system: skin; settings: documented; cited from earlier work
[5] = system: guinea pigs; settings: guinea pig, in vivo
From the text: as §1

[6] = system: skin; assay: Injection of GA alone, re-hydrating effect on the skin; assay type: in vivo, human
[7] = system: human patients; assay: Intradermal application of glycolic acid in human patients; assay type: in vivo; settings: 35 human patients, intradermal application of 5 ml at 0.01%

SMILES	solubility in water [1]	tissue finding ([2]; 0.1 ml at 0.1%, 3rd day)	tissue finding ([2]; 0.1 ml at 0.1%, 7th day)	tissue finding ([2]; 0.1 ml at 0.2%, 3rd day)	tissue finding ([2]; 0.1 ml at 0.2%, 7th day)	tissue finding ([2]; 0.1 ml at 0.3%, 3rd day)	tissue finding ([2]; 0.1 ml at 0.3%, 7th day)	local toxicity [3]	systemic effect or comedomic action [3]	increase in skin moisture [4]	animals showing a minimal oedema and hyperaemia [5]	animals with no edema and no hyperaemia [5]	ideal dose [5]	re-hydrating effect of the skin [6]	adverse reactions in tissues (hyperemia, edema or discreet ecchymosis) [7]
OC[C@@H](O)[C@@H](O)[C@H](O)[C@H](O)CO [D-mannitol]	readily soluble														
O=C(O)CO [glycolic acid]		tissue necrosis	ulcer	moderate hyperaemia and edema	normal tissue (regular)	evident hyperaemia edema	epydermolyse and edema	low local toxicity	no systemic effect or comedomic action	300%	40%	60%	0.01%	remarkable re-hydrating effect	no adverse reactions
